We go through three substances from patent US8193203B2, “Bicyclic compounds having activity at the CXCR4 receptor” (Allergan, Inc., priority 2008, dated 2012).

This test concerns the target T1, human CXCR4 receptor (Homo sapiens, UniProt P61073).
T1 construct: expressed in transfected cells
The test can be described thus: Measurement of intracellular Ca+2 responses (FLIPR), antagonism of the SDF-1α response. To be noted: for IC50: HEK-Gqi5 cells stably expressing human CXCR4, Fluo-4 FLIPR, antagonism of SDF-1α 1.9 nM (EC65); for CXCR4 (% Inh): percent antagonism of SDF-1α 1.9 nM (EC65) response, HEK-Gqi5 human CXCR4 cells, value in brackets. The test is classed as cell-based. Summed up: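 HEK-Gqi5 cells stably expressing CXCR4, Fluo-4-loaded (2 uM, 40 min, 37 °C), read on FLIPR. Compound (2.44-40,000 nM) added first for agonism, then SDF-1α at 1.9 nM final (EC65); IC50 and percent antagonism from second-addition calcium signal.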

T1 sequence (P61073 whole entry): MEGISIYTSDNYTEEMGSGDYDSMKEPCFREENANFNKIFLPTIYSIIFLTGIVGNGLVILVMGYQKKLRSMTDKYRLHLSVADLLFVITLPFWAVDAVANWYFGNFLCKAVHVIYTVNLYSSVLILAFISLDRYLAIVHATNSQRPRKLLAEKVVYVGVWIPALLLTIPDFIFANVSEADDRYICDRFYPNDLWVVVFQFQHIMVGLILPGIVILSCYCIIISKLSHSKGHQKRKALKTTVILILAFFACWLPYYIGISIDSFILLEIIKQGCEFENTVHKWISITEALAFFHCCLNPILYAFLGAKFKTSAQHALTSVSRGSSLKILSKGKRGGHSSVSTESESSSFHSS

With “N˜4˜-(1-{2-(Dimethylamino)-6-[2-(dimethylamino)ethoxy]benzyl}piperidin-4-yl)-6,7-dimethoxy-N2(1H-1,2,4-triazol-5-ylmethyl)quinazoline-2,4-diamine [Compound 211]”, the “CXCR4 (% Inh)” value stood at 98%. The IC50 – broadly, the concentration at which inhibition is half-maximal – (values in nM) stood at 25 nM.

With “N˜4˜-{1-[2-(Dimethylamino)-6-methoxybenzyl]pyrrolidin-3-yl}-N˜2˜-[3-(dimethylamino)propyl]-6,7-dimethoxyquinazoline-2,4-diamine [Compound 161]”, the “CXCR4 (% Inh)” value is on record as 92%. For the same substance, under “values given in μM”, it took 1900 nM to reach half-maximal inhibition (IC50).

With “N˜4˜-{1-[2-(Dimethylamino)-6-methoxybenzyl]pyrrolidin-3-yl}-N˜2˜-[3-(dimethylamino)propyl]-6,7-dimethoxyquinazoline-2,4-diamine [Compound 165]”, the “CXCR4 (% Inh)” value was determined as 97%. Where the note is “values in nM”, inhibition was half-maximal at 538 nM (IC50).
